Paper PMC8963105, “A Novel Modulator of the Renin–Angiotensin System, Benzoylaconitine, Attenuates Hypertension by Targeting ACE/ACE2 in Enhancing Vasodilation and Alleviating Vascular Inflammation” (Frontiers in Pharmacology, 2022)

Assays:
[1] = biological target: hrACE2 (Homo sapiens, UniProt Q9BYF1); assay: SensoLyte390 ACE2 activity assay (enzyme kinetics, cell-free); format: biochemical; conditions: 37°C, 30 min, read-out: EC50 (ACE2 activity, excitatory effect)
Experimental: ACE and ACE2 activities were measured using the ACE activity assay kit and SensoLyte390 ACE2 activity assay kit (Anaspec, Fremont, CA, United States), respectively, according to the manufacturer’s instructions with some modifications. Briefly, rhACE solution dissolved in deionized water was used for analysis. ACE activity was measured in a reaction system with 50 μl of the sample and 50 μl of the ACE substrate solution with or without BAC (10^–4 to 10^–2 μM). ACE2 activity was assayed in the same manner as ACE activity. All assays were performed every 10 s for 30 min at 37°C using a Varioskan LUX fluorescence microplate reader (Thermo Fisher Scientific, Waltham, MA, United States). The autofluorescence value in each assay was subtracted from the measured values to generate the final results. The relative fluorescence unit of each sample was normalized to the corresponding total protein concentration, which was measured using a Pierce BCA protein assay kit (Thermo Fisher Scientific).

[2] = tested on: HUVECs; assay: CCK-8 cell viability (drug cytotoxicity) in HUVECs; format: cell-based, human; conditions: dose lower than 100 μM, 48 h
From the text: Human umbilical vein endothelial cells (HUVECs) were isolated from umbilical cords as previously described ([Jaffe et al., 1973]). They were purchased from ATCC (cat# CRL-1444, Manassas, VA, United States) and cultured in endothelial cell medium (ECM, ScienCell, Carlsbad, CA, United States) supplemented with 5% FBS, 1% endothelial cell growth supplement, and 1% antibiotics (Sigma, St. Louis, MO, United States). Cells harvested between the third and tenth passages were used in the experiments. Cells were cultured until they were ∼80% confluent. After pre-starving in a quiescing ECM supplemented with 1% FBS and 1% antibiotics for 24 h, the cells were treated using different concentrations of BAC (Control, DMSO, 25, 50, and 100 μM, dissolved in 0.1% DMSO–DMEM) with or without MG132, an inhibitor of proteasome, at 20 nM or 40 nM for 24 h. Then, cell samples were collected for Western blot analysis or immunofluorescence staining.
The potential of cells to maintain or recover viability after treatment with each agent was determined. Cell viability can be distinguished from the all-or-nothing states of life and death using a quantifiable index between 0 and 1 (or 0 and 100%). Cell viability was measured by a Cell Counting Kit-8 (CCK-8) Assay Kit (EnoGene, Nanjing, China). […] After 1 h of incubation, the absorbance was measured at 450 nm using a microplate reader (Thermo Fisher Scientific). […]

[3] = tested on: IL-6; assay: serum IL-6 by ELISA in SHRs; format: in vivo, rat; conditions: oral 14 days
From the text: All three MDAs (BAC, BMC, and BHC) were purchased from Nature-Standard Co., Ltd. (Shanghai, China) and their purities were all over 98%. The anti-hypertensive effects of MDAs were studied in both acute and chronic experiments. The 16-week-old SHRs were used in animal experiments, and each group had six rats. In the acute experiment, drug administration was via i.v. injection. For i.v. injection, the animals were randomly assigned into four groups: vehicle (0.1% DMSO–0.9% salt solution, n = 6), low-dose group (0.6 mg kg^−1 body weight, n = 6), medium-dose group (2 mg kg^−1 body weight, n = 6), and high-dose group (6 mg kg^−1 body weight, n = 6). The drug was administered using a venous catheter. […] Blood pressure was recorded in real time.
Blood samples were collected from the left femoral artery of rats at the end point, followed by centrifugation at 1,000 × g for 15 min at 4°C. […] The concentrations of circulating ACE, ACE2, Ang I, Ang II, Ang (1–7), TNF-α, and IL-6 in serum were measured using the ELISA kits [ACE, cat#xy-R2401c, X-Y Biotechnology, Shanghai, China; ACE2, cat#xy-ACE2-Ra, X-Y Biotechnology; Ang I, cat#xy-E12541, X-Y Biotechnology; Ang II, cat#xy-R1430c, X-Y Biotechnology; Ang (1–7), cat#xy-Ang1-7-Ra, X-Y Biotechnology; TNF-α, cat#GM1149, Servicebio, Shanghai, China; IL-6, cat#GM1154, Servicebio] according to the manufacturer’s instructions. […]

hrACE2, sequence (Q9BYF1 18-805): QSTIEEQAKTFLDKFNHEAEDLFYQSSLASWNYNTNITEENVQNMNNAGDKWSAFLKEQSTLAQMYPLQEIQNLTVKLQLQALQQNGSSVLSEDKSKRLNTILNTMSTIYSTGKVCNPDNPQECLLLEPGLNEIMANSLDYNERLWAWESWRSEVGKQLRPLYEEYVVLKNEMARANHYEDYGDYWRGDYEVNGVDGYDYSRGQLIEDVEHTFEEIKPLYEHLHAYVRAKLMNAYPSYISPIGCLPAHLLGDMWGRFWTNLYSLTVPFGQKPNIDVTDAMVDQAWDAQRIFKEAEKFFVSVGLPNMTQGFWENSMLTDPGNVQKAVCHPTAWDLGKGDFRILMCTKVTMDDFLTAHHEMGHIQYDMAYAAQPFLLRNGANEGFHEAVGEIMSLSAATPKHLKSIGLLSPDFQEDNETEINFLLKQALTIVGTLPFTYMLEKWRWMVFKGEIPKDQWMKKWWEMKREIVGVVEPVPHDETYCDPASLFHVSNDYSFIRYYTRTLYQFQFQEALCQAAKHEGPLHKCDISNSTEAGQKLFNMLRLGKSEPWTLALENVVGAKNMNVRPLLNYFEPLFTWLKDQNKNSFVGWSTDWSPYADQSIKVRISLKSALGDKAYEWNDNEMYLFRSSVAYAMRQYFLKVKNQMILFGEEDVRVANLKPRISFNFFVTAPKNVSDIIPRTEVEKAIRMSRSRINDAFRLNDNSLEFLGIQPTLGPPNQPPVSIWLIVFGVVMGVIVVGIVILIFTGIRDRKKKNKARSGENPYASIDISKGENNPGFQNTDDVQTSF

Structure (SMILES): CCN1CC2(COC)C(O)CC(OC)C34C5CC6(O)C(OC)C(O)C(O)(C5C6OC(=O)c5ccccc5)C(C(OC)C23)C14 (stereo not drawn) [BAC, Benzoylaconitine]
- EC50 [1]: 1.5 µM
- cell viability (toxicity on HUVECs) [2]: no significant effect
- level of IL-6 in serum [3]: reduced
